This experiment deals with Jurkat, thapsigargin-induced death, ATPlite luminescence, 24 h. The experiment is described as follows: protection from thapsigargin-induced Jurkat death, Jurkat T-cell leukemia, ATP content luminescence (AID 1354). As to conditions: at 25 µM, stronger effect = higher value.
[1] abbreviates: measured here: survival at thapsigargin 10 uM.
[2] abbreviates: measured here: survival at thapsigargin 15 uM.

SMILES strings stand for the structures. Activity calls are given as the source filed them.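 The calls were made as follows: active = survival over 30 points above compound-free thapsigargin wells at any thapsigargin dose; inactive = the rest.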

For `COc1ccc(C2CC(=O)C3=C(C2)Nc2ccccc2NC3c2cc(C)ccc2C)cc1` (stereo not drawn), the survival (thapsigargin 7.5 uM) is 54% (inactive). The survival under setting [1] was found to be 37%. Besides, the survival under setting [2] was found to be 2%.
The like results for `CCCOc1ccc(C2Nc3ccccc3NC3=C2C(=O)CC(c2ccc(OC)c(OC)c2)C3)cc1` (stereo not drawn) were, in that order, 44% (inactive), 17% and 1%.
In the same order, the values of `CSc1ccc(C2Nc3ccccc3NC3=C2C(=O)CC(c2ccccc2)C3)cc1` (stereo not drawn) are 44% (inactive), 23% and 4%.
In the same order, the values of `CC1(C)CC(=O)C2=C(C1)Nc1ccccc1NC2c1ccc(-c2ccccc2)cc1` (stereo not drawn) are 14% (inactive), 3% and 0%.
For `CCOc1cccc(C2Nc3ccccc3NC3=C2C(=O)CC(c2ccc(OC)cc2)C3)c1` (stereo not drawn), the survival (thapsigargin 7.5 uM) is 46% (inactive). This compound came in with a survival under setting [1] of 32%. Also, the survival under setting [2] turned out to be 1%.
In the same order, the values of `O=C1CC(c2ccccc2)CC2=C1C(c1c(F)cccc1Cl)Nc1ccccc1N2` (stereo not drawn) are 39% (inactive), 23% and 1%.
As for `COc1ccc(C2CC(=O)C3=C(C2)Nc2ccccc2NC3c2cccc(Oc3ccccc3)c2)cc1OC` (stereo not drawn), the survival (thapsigargin 7.5 uM) is 51% (inactive). Also, the survival under setting [1] was 37%. This compound also gave a survival under setting [2] of 7%.
In the same order, the values of `COc1ccc(C2CC(=O)C3=C(C2)Nc2ccccc2NC3c2cccc(C(F)(F)F)c2)cc1OC` (stereo not drawn) are 42% (inactive), 19% and 1%.
In the same order, the values of `COc1ccc(C2CC(=O)C3=C(C2)Nc2ccccc2NC3c2cccc(Br)c2)cc1OC` (stereo not drawn) are 34% (inactive), 18% and 1%.
In the same order, the values of `COc1ccc(C2CC(=O)C3=C(C2)Nc2ccccc2NC3c2ccccc2C(F)(F)F)cc1OC` (stereo not drawn) are 44% (inactive), 32% and 2%.
In the case of `CCOc1cc(C2Nc3ccccc3NC3=C2C(=O)CC(c2ccc(OC)cc2)C3)cc(Cl)c1O` (stereo not drawn), the survival (thapsigargin 7.5 uM) was 55% (inactive). In addition, under setting [1], the survival came out at 35%. Besides, under setting [2], the survival came out at 2%.
